Source: US20220000117A1, “METHOD FOR CONTROLLING DISEASES IN SMALL GRAIN CEREALS, SEED OF SMALL GRAIN CEREALS, AND METHOD FOR SUPPRESSING LODGING DAMAGE IN SMALL GRAIN CEREALS” (KUMIAI CHEMICAL INDUSTRY CO., LTD., priority 2019, published 2022)

Assays:
powdery mildew [1] = assay: Test Example 1: control test of wheat powdery mildew, field, wheat variety Haruyutaka; type: in vivo, Blumeria graminis; details: Foliage Treatment, spray 250 g/ha three times; flag leaves, 79 days after seeding
Method: Seed of wheat (variety: Haruyutaka) sterilized in advance with commercial Benlate T wettable powder 20 (“Benlate” is a registered trademark) was used. In Example 1, seed having a mass of 1 kg was mixed into 100 ml of suspension water containing 5 g of dichlobentiazox, air-dried, and then, stripe-sown in a field with a furrow width of 30 cm and a ratio of 163 kg/ha (417 seeds/m^2). In contrast, in Comparative Example 1, seed which had not treated with dichlobentiazox was sown in a field in the same manner, and a spray solution corresponding to that obtained by suspending 500 g of dichlobentiazox in 200 liters of water per 1 ha was sprayed on foliage of wheat three times, during an ear emergence period (63 days after seeding), a flowering period (70 days after seeding), and a flowering end period (77 days after seeding). Similarly, in place of 500 g of dichlobentiazox in Comparative Example 1, 250 g of azoxystrobin (commercial Amistar 20 flowable was used. “Amistar” is a registered trademark) was used in Comparative Example 2, and 125 g of propiconazole (commercial Tilt emulsifiable concentrate 25 was used, “Tilt” is a registered trademark) was used in Comparative Example 3. The presence or absence of disease occurrence and a lesion area ratio of powdery mildew in flag leaves of 30 stems were investigated 79 days after seeding according to the criteria in Table 1, and a disease leaf rate and the degree of disease occurrence were calculated by the following calculation formula (1).
(§1) Degree of Disease Occurrence=Σ(Index×Number of Leaves of Index)/(4×Number of Investigated Leaves)×100 (1)

septoria leaf blotch = assay: Test Example 10: control test of septoria leaf blotch of wheat, cup in greenhouse, inoculated, variety ARKEOS (Tables 15 to 19); type: in vivo, Septoria tritici
Method: as §1
Seed of wheat (variety: ARKEOS) was used, and 100 ml of suspension waters each containing the compound shown in Table 15 at an amount shown in Table 15 (synthesis was performed in accordance with a known method, a liquid dissolved in a small amount of DMSO or formulated 10% wettable powder was used) were prepared. Seed having a mass of 1 kg was mixed into the suspension water with a rate shown in Examples of Table 15, and air-dried, and then, 5 seeds were sown in a plastic cup having a diameter of 6 cm containing mixed soil of river sand and horticultural soil and managed in a greenhouse. In Comparative Examples, 20 ml of suspension water of an active ingredient, which had been adjusted to have a concentration shown in Table 15 to 19, was sprayed in a frame of 45 cm×45 cm in which a pot of wheat seedlings was placed (corresponding to 1000 L/ha) 14 days after seeding. On day 14 after seeding, a spore suspension in which conidiospores of septoria leaf blotch are suspended was sprayed and inoculated on leaves of wheat seedlings (after the sprayed liquid was dried in the case of Comparative Examples), a lesion area ratio of septoria leaf blotch in a second leaf was investigated approximately 35 days after seeding according to the criteria in Table 1, and the degree of disease occurrence was calculated by the above calculation formula (1).

powdery mildew [2] = assay: Test Example 9: control test of wheat powdery mildew, cup in greenhouse, inoculated, Norin No. 61 (Tables 10 to 14); type: in vivo, Blumeria graminis; design: key to Degree of Disease Occurrence: Σ(index×leaves)/(4×leaves investigated)×100; 0 = no disease, 100 = max
Method: as §1
Seed of wheat (variety: Norin No. 61) was used, and 100 ml of suspension waters each containing the compound shown in Table 10 at an amount shown in […] (synthesis was performed in accordance with a known method, a solution dissolved in DMSO or formulated 10% wettable powder was used) were prepared. The seed having a mass of 1 kg of wheat was mixed into the suspension water with a chemical treated amount shown in Table 10, and air-dried, and then, 5 seeds were sown in a plastic cup having a diameter of 6 cm containing river sand and managed in a greenhouse. In Comparative Examples, 20 ml of the suspension water of an active ingredient, which had been adjusted to have a concentration shown in Table 10, was sprayed in a frame of 45 cm×45 cm in which a pot of wheat seedlings was placed (corresponding to 1000 L/ha) 14 days after seeding. On day 14 after seeding, conidiospores of powdery mildew were sifted over leaves of wheat seedlings and inoculated onto the leaves (after the sprayed liquid was dried in the case of Comparative Examples), a lesion area ratio of powdery mildew in a first leaf was investigated 21 days after seeding according to the criteria in Table 1, and the degree of disease occurrence was calculated by the above calculation formula (1).

[3] = Table 19, Foliage Treatment, spray 50 ppm suspension water (corresponding to 50 g/ha) 14 days after seeding, untreated 45.0
[4] = Table 19, Foliage Treatment, spray 50 ppm suspension water (corresponding to 50 g/ha) 14 days after seeding, untreated 98.0
[5] = Table 19, Seed Treatment, 0.5 g/Seed 1 kg (corresponding to 50 g/ha), untreated 45.0
[6] = Table 19, Seed Treatment, 0.5 g/Seed 1 kg (corresponding to 50 g/ha), untreated 98.0
[7] = Table 12 run (different day), Foliage Treatment, spray 10 ppm (10 g/ha)
[8] = Table 12 run (different day), Foliage Treatment, spray 50 ppm (50 g/ha)
[9] = Table 12 run (different day), Seed Treatment 0.1 g/Seed 1 kg (10 g/ha)
[10] = Table 12 run (different day), Seed Treatment 0.5 g/Seed 1 kg (50 g/ha)
[11] = Table 14, Foliage Treatment, spray 10 ppm suspension water (corresponding to 10 g/ha) 14 days after seeding, untreated 70.0
[12] = Table 14, Foliage Treatment, spray 10 ppm suspension water (corresponding to 10 g/ha) 14 days after seeding, untreated 100.0
[13] = Table 14, Foliage Treatment, spray 50 ppm suspension water (corresponding to 50 g/ha) 14 days after seeding, untreated 70.0
[14] = Table 14, Foliage Treatment, spray 50 ppm suspension water (corresponding to 50 g/ha) 14 days after seeding, untreated 100.0
[15] = Table 14, Seed Treatment, 0.1 g/Seed 1 kg (corresponding to 10 g/ha), first leaf, 21 days after seeding, untreated 70.0
[16] = Table 14, Seed Treatment, 0.1 g/Seed 1 kg (corresponding to 10 g/ha), first leaf, 21 days after seeding, untreated 100.0
[17] = Table 14, Seed Treatment, 0.5 g/Seed 1 kg (corresponding to 50 g/ha), first leaf, 21 days after seeding, untreated 70.0
[18] = Table 14, Seed Treatment, 0.5 g/Seed 1 kg (corresponding to 50 g/ha), first leaf, 21 days after seeding, untreated 100.0
[19] = Table 12 run (different day), Foliage Treatment, spray 5 ppm (5 g/ha)
[20] = Table 12 run (different day), Seed Treatment 0.05 g/Seed 1 kg (5 g/ha)
[21] = Table 13 run (different day), Foliage Treatment, spray 5 ppm (5 g/ha)
[22] = Table 13 run (different day), Foliage Treatment, spray 10 ppm (10 g/ha)
[23] = Table 13 run (different day), Foliage Treatment, spray 50 ppm (50 g/ha)
[24] = Table 13 run (different day), Seed Treatment 0.05 g/Seed 1 kg (5 g/ha)
[25] = Table 13 run (different day), Seed Treatment 0.1 g/Seed 1 kg (10 g/ha)
[26] = Table 13 run (different day), Seed Treatment 0.5 g/Seed 1 kg (50 g/ha)
[27] = Table 18, Foliage Treatment, spray 5 ppm (5 g/ha)
[28] = Table 18, Foliage Treatment, spray 10 ppm (10 g/ha)
[29] = Table 18, Seed Treatment 0.05 g/Seed 1 kg (5 g/ha)
[30] = Table 18, Seed Treatment 0.1 g/Seed 1 kg (10 g/ha)

SMILES | Degree of Disease Occurrence (septoria leaf blotch; [3]) | Disease Leaf Rate (%) (septoria leaf blotch; [4]) | Degree of Disease Occurrence (septoria leaf blotch; [5]) | Disease Leaf Rate (%) (septoria leaf blotch; [6]) | Degree of Disease Occurrence (powdery mildew [2]; [7]) | Disease Leaf Rate (%) (powdery mildew [2]; [7]) | Degree of Disease Occurrence (powdery mildew [2]; [8]) | Disease Leaf Rate (%) (powdery mildew [2]; [8]) | Degree of Disease Occurrence (powdery mildew [2]; [9]) | Disease Leaf Rate (%) (powdery mildew [2]; [9]) | Degree of Disease Occurrence (powdery mildew [2]; [10]) | Disease Leaf Rate (%) (powdery mildew [2]; [10]) | Degree of Disease Occurrence (powdery mildew [2]; [11]) | Disease Leaf Rate (%) (powdery mildew [2]; [12]) | Degree of Disease Occurrence (powdery mildew [2]; [13]) | Disease Leaf Rate (%) (powdery mildew [2]; [14]) | Degree of Disease Occurrence (powdery mildew [2]; [15]) | Disease Leaf Rate (%) (powdery mildew [2]; [16]) | Degree of Disease Occurrence (powdery mildew [2]; [17]) | Disease Leaf Rate (%) (powdery mildew [2]; [18]) | also measured
CO/C=C(/C(=O)OC)c1ccccc1Oc1cc(Oc2ccccc2C#N)ncn1 [Azoxystrobin, azoxystrobin, reference compound] |  |  |  |  |  |  |  |  |  |  |  |  |  |  |  |  |  |  |  |  | Degree of Disease Occurrence (powdery mildew [1]): 17.6; Disease Leaf Rate (%) (powdery mildew [1]): 90.0%
N=C(Nc1ccccc1)c1snc(Cl)c1Cl [Compound (16)] | 38.3 | 99.7 | 29.4 | 82.5 | 63.3 | 100.0 | 43.3 | 80.0 | 22.5 | 65.0 | 6.3 | 16.7 | 32.6 | 80.6 | 19.6 | 53.3 | 15.2 | 60.8 | 8.9 | 35.4 | Degree of Disease Occurrence (powdery mildew [2]; Table 14, Foliage Treatment, spray 100 ppm suspension water (corresponding to 100 g/ha) 14 days after seeding, untreated 70.0): 29.2; Disease Leaf Rate (%) (powdery mildew [2]; Table 14, Foliage Treatment, spray 100 ppm suspension water (corresponding to 100 g/ha) 14 days after seeding, untreated 100.0): 80.6%; Degree of Disease Occurrence (powdery mildew [2]; Table 14, Seed Treatment, 1 g/Seed 1 kg (corresponding to 100 g/ha), first leaf, 21 days after seeding, untreated 70.0): 18.2; Disease Leaf Rate (%) (powdery mildew [2]; Table 14, Seed Treatment, 1 g/Seed 1 kg (corresponding to 100 g/ha), first leaf, 21 days after seeding, untreated 100.0): 50.0%
N/C(=N\O)c1snc(Cl)c1Cl [Compound (17)] | 38.3 | 99.7 | 29.4 | 82.5 | 43.3 | 80.0 |  |  | 10.4 | 25.0 |  |  |  |  |  |  |  |  |  |  | Degree of Disease Occurrence (septoria leaf blotch; Table 19, Foliage Treatment, spray 100 ppm suspension water (corresponding to 100 g/ha) 14 days after seeding, untreated 45.0): 36.7; Disease Leaf Rate (%) (septoria leaf blotch; Table 19, Foliage Treatment, spray 100 ppm suspension water (corresponding to 100 g/ha) 14 days after seeding, untreated 98.0): 94.9%; Degree of Disease Occurrence (septoria leaf blotch; Table 19, Seed Treatment, 1 g/Seed 1 kg (corresponding to 100 g/ha), untreated 45.0): 20.9; Disease Leaf Rate (%) (septoria leaf blotch; Table 19, Seed Treatment, 1 g/Seed 1 kg (corresponding to 100 g/ha), untreated 98.0): 78.8%; Degree of Disease Occurrence (powdery mildew [2]; [19]): 45.0; Disease Leaf Rate (%) (powdery mildew [2]; [19]): 93.3%; Degree of Disease Occurrence (powdery mildew [2]; [20]): 23.3; Disease Leaf Rate (%) (powdery mildew [2]; [20]): 66.7%; Degree of Disease Occurrence (powdery mildew [2]; [21]): 85.8; Disease Leaf Rate (%) (powdery mildew [2]; [21]): 100.0%; Degree of Disease Occurrence (powdery mildew [2]; [22]): 62.4; Disease Leaf Rate (%) (powdery mildew [2]; [22]): 95.8%; Degree of Disease Occurrence (powdery mildew [2]; [23]): 42.4; Disease Leaf Rate (%) (powdery mildew [2]; [23]): 90.6%; Degree of Disease Occurrence (powdery mildew [2]; [24]): 66.7; Disease Leaf Rate (%) (powdery mildew [2]; [24]): 100.0%; Degree of Disease Occurrence (powdery mildew [2]; [25]): 47.9; Disease Leaf Rate (%) (powdery mildew [2]; [25]): 100.0%; Degree of Disease Occurrence (powdery mildew [2]; [26]): 33.1; Disease Leaf Rate (%) (powdery mildew [2]; [26]): 83.8%
N=C(N)c1snc(Cl)c1Cl [Compound (13)] |  |  |  |  | 36.7 | 53.3 | 21.7 | 53.3 | 7.5 | 20.0 | 9.7 | 38.9 | 35.6 | 76.7 | 31.3 | 83.3 | 17.2 | 68.8 | 13.9 | 44.4 | Degree of Disease Occurrence (septoria leaf blotch; [27]): 60.0; Disease Leaf Rate (%) (septoria leaf blotch; [27]): 100.0%; Degree of Disease Occurrence (septoria leaf blotch; [28]): 68.3; Disease Leaf Rate (%) (septoria leaf blotch; [28]): 100.0%; Degree of Disease Occurrence (septoria leaf blotch; [29]): 28.8; Disease Leaf Rate (%) (septoria leaf blotch; [29]): 95.0%; Degree of Disease Occurrence (septoria leaf blotch; [30]): 42.5; Disease Leaf Rate (%) (septoria leaf blotch; [30]): 100.0%; Degree of Disease Occurrence (powdery mildew [2]; [19]): 60.0; Disease Leaf Rate (%) (powdery mildew [2]; [19]): 100.0%; Degree of Disease Occurrence (powdery mildew [2]; [20]): 19.4; Disease Leaf Rate (%) (powdery mildew [2]; [20]): 53.3%
